Results reported in patent US20070191324A1, “Methods for treatment or prophylaxis of aldosterone-mediated pathogenic effects in a subject using an epoxy-steroidal aldosterone antagonist” (priority 1999, published 2007).
Like-named read-outs stand apart in the source and are kept apart here.

Experiments:
[1] = tested on: black and white patients with mild-to-moderate hypertension; settings: for Active Renin (% change) / ΔDBP / ΔSBP: baseline to Week 16
[2] = tested on: saline-drinking SHRSP; assay: Stroke and cerebrovascular damage in saline-drinking SHRSP (Example A-7); type: in vivo, rat; settings: 100 mg/kg/day, up to 18.5 weeks of age
Text: Fifteen male, 9 weeks of age, saline-drinking SHRSP were included in the experiment. […] A-12). […] Using a semi-quantitative scoring system from 0-4 for cerebral injury (FIG.

[3] = tested on: patients uncontrolled with BB or CCB monotherapy; assay: Eplerenone co-administration with CCB or beta-blocker, 8 weeks (Example D-10); type: in vivo, human; settings: for Diastolic Blood Pressure Responder Rates, Percentage of Patients Responding: seDBP <90 mmHg or ≧10 mmHg reduction
Procedure: This was a multicenter, double-blind, randomized, placebo-controlled, placebo run-in, parallel-group study. […] The dose was to be increased only once during the study. […] Study assessments at protocol-specified timepoints included BP, heart rate, clinical laboratory analyses, ECG, and concomitant medications. Throughout the study, safety was assessed by routine clinical laboratory analyses, vital signs, physical examinations, 12-lead ECG, and monitoring of adverse events. […] The study was designed to include 60 randomized patients in each group and each cohort.

[4] = tested on: saline-drinking SHRSP; assay: Renal pathologic changes in saline-drinking SHRSP, Protocol 1 (Example A-8); type: in vivo, rat (SHRSP/A3N)
Procedure: Animals. Studies were conducted in accordance with institutional guidelines using male […] (generations […]-78), n=37, from our local colony. These animals were bred from NIH stock, derived from the […] substrain described originally by Okamoto and coworkers (Okamoto K et al. Circ. […] All animals were housed in a room maintained on a 12:12-h light:dark-cycle and an ambient temperature of 22±1° C. in the Animal Care Facility at New York Medical College. Rats were weaned at 4 weeks of age and allowed free access to Purina Lab Chow 5001 (Ralston Purina, St. Louis, Mo.) and tap water until the initiation of experimental protocols. […] Animals were examined each day for neurologic signs of stroke. Systolic arterial pressure and heart rate were measured each week in awake rats. […] Trunk blood was collected into chilled EDTA tubes following rapid decapitation of the animals between 10:00 am and 12:00 pm. Blood was stored at -20° C. for later measurement of plasma aldosterone levels. The kidneys were rapidly removed, weighed, and then preserved in fixative for later histologic examination. Assays and Analyses. Systolic blood pressure and heart rate of awake animals were measured by tail-cuff plethysmography using a Natsume KN-210 manometer and tachometer (Peninsula Laboratories Inc., Belmont, Calif.). Rats were warmed at 37° C. for 10 min and allowed to rest quietly in a Lucite chamber before measurement of blood pressure. Measurements of urine volume were made gravimetrically. Urinary protein concentration was determined by the sulfosalicylic acid turbidity method. Plasma aldosterone was measured by radioimmunoassay using ^125I-aldosterone as a tracer (Coat-a Count Aldosterone, Diagnostic Products Co., Los Angeles, Calif.). Histology. […] Coronal sections (2-3 μm) were stained with hematoxylin and eosin and examined by light microscopy in a blinded fashion as previously described ([…] et al. […] Glomerular damage was categorized as ischemic or thrombotic. Ischemic lesions were defined as retraction of glomerular capillary tufts with or without appreciable mesangiolysis. […] The presence of casts and tubular (ischemic) retraction and simplification was assessed semiquantitatively. […] Significant effects with respect to treatment and time were determined by two-way analysis of variance. Data with only one grouping variable were analyzed statistically by Student's unpaired t tests. […] Data were analyzed using version 2.01 of the GraphPad Prism statistical software package (GraphPad Software Inc., San Diego, Calif.). […]

[5] = tested on: hypertensive patients; assay: Eplerenone vs. amlodipine, ambulatory blood pressure monitoring, 16 weeks (Example D-12); type: in vivo, human
Text: This was a multicenter, randomized, double-blind, active-controlled, placebo run-in, parallel group study. […] If symptomatic hypotension occurred at Week 2 or Weeks 4, 6, 8, or 12 and the patient was on the lowest dose level (Dose Level 1), the patient was to be withdrawn. Study assessments at protocol-specified timepoints included BP, heart rate, ABPM, Holter recording, clinical laboratory analyses including serum potassium levels, concomitant medications. Throughout the study, safety was assessed by routine clinical laboratory analyses, vital signs, physical examinations, 12-lead ECG, and monitoring of adverse events.

[6] = eplerenone 50-100 mg QD, 8 weeks

SMILES: COC(=O)[C@@H]1CC2=CC(=O)CC[C@]2(C)[C@@]23O[C@@H]2C[C@@]2(C)[C@@H](CC[C@@]24CCC(=O)O4)[C@H]13 [Eplerenone, Pregn-4-ene-7,21-dicarboxylic acid, 9,11-epoxy-17-hydroxy-3-oxo-, γ-lactone, methyl ester, (7α, 11α, 17β)-]
- treatment of mild-to-moderate hypertension in black hypertensive patients ([1]; 16 weeks): superior to losartan
- Active Renin (% change) ([1]; All Patients): +45.6%
- ΔDBP ([1]; All Patients): −10.3 mmHg
- ΔSBP ([1]; All Patients): −12.8 mmHg
- Active Renin (% change) ([1]; Black Patients): +39.3%
- ΔDBP ([1]; Black Patients): −10.2 mmHg
- ΔSBP ([1]; Black Patients): −13.5 mmHg
- adjusted mean percent change from baseline in UACR ([1]; Week 16, EPL 50-200 mg QD, LOS 50-100 mg QD): −21.6%
- Active Renin (% change) ([1]; White Patients): +57.1%
- ΔDBP ([1]; White Patients): −11.1 mmHg
- ΔSBP ([1]; White Patients): −12.3 mmHg
- safety and tolerability ([1]; human, in vivo): safe and well-tolerated
- stroke signs [2]: no signs of stroke
- Diastolic Blood Pressure Responder Rates, Percentage of Patients Responding ([3]; BB Cohort, Week 2): 48 (69.6%)
- Diastolic Blood Pressure Responder Rates, Percentage of Patients Responding ([3]; BB Cohort, Week 4): 53 (76.8%)
- Diastolic Blood Pressure Responder Rates, Percentage of Patients Responding ([3]; BB Cohort, Week 6): 56 (81.2%)
- Diastolic Blood Pressure Responder Rates, Percentage of Patients Responding ([3]; BB Cohort, Week 8): 52 (75.4%)
- Diastolic Blood Pressure Responder Rates, Percentage of Patients Responding ([3]; CCB Cohort, Week 2): 40 (60.6%)
- Diastolic Blood Pressure Responder Rates, Percentage of Patients Responding ([3]; CCB Cohort, Week 4): 51 (76.1%)
- Diastolic Blood Pressure Responder Rates, Percentage of Patients Responding ([3]; CCB Cohort, Week 6): 55 (82.1%)
- Diastolic Blood Pressure Responder Rates, Percentage of Patients Responding ([3]; CCB Cohort, Week 8): 48 (71.6%)
- safety and tolerability ([3]; add on anti-hypertensive agent): safe and well tolerated
- responders (seDBP <90 mmHg or ≧10 mmHg reduction from Baseline), CCB cohort ([3]; each timepoint, vs placebo): more patients who received eplerenone responded to treatment
- responders (seDBP <90 mmHg or ≧10 mmHg reduction from Baseline), BB cohort ([3]; each timepoint, vs placebo (p ≦0.011)): significantly greater proportions of patients who received eplerenone responded to treatment
- DBP and SBP, addition to a BB [3, 6]: efficacious in reducing DBP and SBP
- SBP, addition to a CCB [3, 6]: efficacious in reducing SBP
- Glomerular damage, Total ([4]; 100 mg/kg/d by gavage, 8.4 to 13.1 weeks of age): only rare instances of ischemic or thrombotic glomeruli
- plasma concentration of aldosterone ([4]; 100 mg/kg/d, 5 weeks): 315 ± 35 pg/mL
- signs of stroke ([4]; 100 mg/kg/d, 5 weeks): none of eplerenone-treated SHRSP showed evidence of stroke
- tubules with ischemic retraction and simplification ([4]; 100 mg/kg/d, 5 weeks): 0.5±0.2%
- anti-hypertensive effect, mean 24 hour systolic ABPM ([5]; eplerenone 50-200 mg, amlodipine 2.5-10 mg, 16 weeks): comparable
- safety and tolerability ([5]; in vivo): safe and well tolerated
